Data set [1] deals with T1, Mtb DnaG (Mycobacterium tuberculosis, UniProt P9WNW1).
T1 sequence (P9WNW1 1-639): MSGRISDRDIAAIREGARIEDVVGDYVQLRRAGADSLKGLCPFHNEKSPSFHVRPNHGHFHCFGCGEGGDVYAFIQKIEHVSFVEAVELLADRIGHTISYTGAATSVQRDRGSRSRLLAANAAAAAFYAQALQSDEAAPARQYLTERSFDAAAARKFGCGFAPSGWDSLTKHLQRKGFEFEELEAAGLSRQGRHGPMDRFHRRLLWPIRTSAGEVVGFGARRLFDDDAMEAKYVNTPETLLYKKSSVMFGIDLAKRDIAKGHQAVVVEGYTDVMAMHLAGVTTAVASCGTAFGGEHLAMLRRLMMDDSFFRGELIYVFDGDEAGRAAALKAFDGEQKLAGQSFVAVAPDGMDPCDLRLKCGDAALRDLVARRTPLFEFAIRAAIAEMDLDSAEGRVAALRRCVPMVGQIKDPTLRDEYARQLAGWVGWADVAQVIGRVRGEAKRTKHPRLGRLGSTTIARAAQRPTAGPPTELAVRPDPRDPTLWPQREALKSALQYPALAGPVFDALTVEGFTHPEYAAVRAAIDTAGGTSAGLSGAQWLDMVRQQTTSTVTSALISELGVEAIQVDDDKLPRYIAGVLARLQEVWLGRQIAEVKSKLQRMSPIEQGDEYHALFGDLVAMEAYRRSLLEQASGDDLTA
It counts as biochemical. Particulars: for signal change in HTS: 13 µM compound, not enzyme activation but phosphate from the compound.

The subject of another data set is human primase. Particulars: cited from earlier work.
For data set [2], the target named is T1, Mtb DnaG. It counts as biochemical. The settings on record: 10 µM inhibitor (Figure 3); gel, Figures 3 and 9.
Data set [3] has as its target T1, Mtb DnaG. Put plainly: Mode of inhibition assays. It counts as biochemical. Particulars: for mode of inhibition: Lineweaver–Burk plots, varied NTP and DNA; for n, number of inhibitor molecules bound: alternative model with high cooperativity; for n, number of binding sites on Mtb DnaG: global fit, non-cooperative model.
Data set [4] has as its target T1, Mtb DnaG. In words: Dose–response coupled primase–pyrophosphatase assay. Particulars: for Hill coefficient: dose–response fit, 1.25 µM DNA, 110 µM NTP, 0.5 µM Mtb DnaG.
For another data set, the system named is human DNA polymerase α. Particulars: cited from earlier work.
Another data set concerns the target T2, Mtb DnaG (DNA primase) (Mycobacterium tuberculosis H37Rv, UniProt P9WNW1 1-639).
T2 sequence: T1 sequence (P9WNW1 1-639)
In words: fluorescence anisotropy. In general terms: Polarisation of emitted light reports the rotation of a fluorescent probe.

Consider 8 molecules from PMC3575809 (Nucleic Acids Research, 2012).

Usually Ki stands for the dissociation constant of the complex between target and ligand, obtained from inhibition or displacement. As usually defined, the IC50 is the concentration needed to halve the response being measured. Low values mean greater potency in that assay, high ones weaker potency in that assay. By Hill coefficient is commonly meant the slope factor of the fitted curve. The term Kd denotes the free concentration of one partner at which half of the binding sites on the other are occupied at equilibrium, for simple one-to-one binding. Lower therefore signals a tighter complex.

Turning to `O=C(O)CN(CCN(CC(=O)O)CC(=O)O)CC(=O)O` [EDTA, ethylenediaminetetraacetic acid], the “inhibition by positive control in HTS” value against Mtb DnaG [1] is “full inhibition”.
Turning to `Cc1ccc(C(=O)Nc2ccc(S(=O)(=O)O)c3cc(S(=O)(=O)O)cc(S(=O)(=O)O)c23)cc1NC(=O)c1cccc(NC(=O)Nc2cccc(C(=O)Nc3cc(C(=O)Nc4ccc(S(=O)(=O)O)c5cc(S(=O)(=O)O)cc(S(=O)(=O)O)c45)ccc3C)c2)c1` [suramin], the mode of inhibition entry in the data set on human primase was “DNA- and NTP-competitive inhibitor of human DNA polymerase α and primase, respectively”. On Mtb DnaG [2], the “effect on synthesis of radioactively labelled RNA products” value is given as “potent Mtb DnaG inhibitors”. Besides, on Mtb DnaG [3], the inhibition constant Ki was 3.2 ± 0.5 µM; the mode of inhibition entry is “competitive inhibitors with respect to both NTP and DNA”; the “n, number of inhibitor molecules bound” value was found to be 3; the “n, number of binding sites on Mtb DnaG” value is listed as 4. Also, on Mtb DnaG [4], the IC50 was 6.3 ± 0.2 µM and the Hill coefficient was found to be 2.9 ± 0.1. The mode of inhibition entry in the data set on human DNA polymerase α was “DNA- and NTP-competitive inhibitor of human DNA polymerase α and primase, respectively”.
Consider `COc1cccc2c1C(=O)c1c(O)c3c(c(O)c1C2=O)C[C@@](O)(C(=O)CO)C[C@@H]3O[C@H]1C[C@H](N)[C@H](O)[C@H](C)O1` [doxorubicin], for which the “effect on synthesis of radioactively labelled RNA products” value at Mtb DnaG [2] is given as “potent Mtb DnaG inhibitors”. At Mtb DnaG [3], the affinity corresponds to a Ki of 2.5 ± 0.5 µM; the mode of inhibition result was “competitive inhibitors with respect to both NTP and DNA”; the “n, number of inhibitor molecules bound” value was found to be 2; the “n, number of binding sites on Mtb DnaG” value is given as 3. Further, at Mtb DnaG [4], the concentration for half-maximal inhibition (IC50) came out at 7.7 ± 0.5 µM and the Hill coefficient is listed as 2.0 ± 0.2.
Turning to `CO[C@H]1C[C@H](O[C@H]2[C@H](C)[C@@H](O[C@@H]3O[C@H](C)C[C@H](N(C)C)[C@H]3O)[C@@H](C)C[C@@]3(CO3)C(=O)[C@H](C)[C@@H](O)[C@@H](C)[C@@H](C)OC(=O)[C@@H]2C)O[C@@H](C)[C@@H]1O` [oleandomycin phosphate], the “signal change in HTS” value on Mtb DnaG [1] is “increase in absorbance”.
Same read-out and setting: under `O=C(O)c1ccccc1OP(=O)(O)O` [fosfosal] stands “increase in absorbance”.
In the case of `O=c1oc2c(O)c(O)cc3c(=O)oc4c(O)c(O)cc1c4c23` [ellagic acid], 22 ± 3 µM corresponded to half-maximal inhibition on Mtb DnaG [4] (IC50).
`CC(C)N(CCC(C(N)=O)(c1ccccc1)c1ccccn1)C(C)C` (stereo not shown) [disopyramide phosphate]: on Mtb DnaG [1], the “signal change in HTS” value is “increase in absorbance”.
CCGAATCAGTCCGACGACGCATCAGCAC (ssDNA) [28-mer ssDNA] returned a Kd with Mtb DnaG (DNA primase) of 0.036 ± 0.016 µM.
